The text below walks through data of US11708348B2, “Protease inhibitors for treatment of coronavirus infections” (The Scripps Research Institute, priority 2021, dated 2023).

Each structure is given as a SMILES string.

The experiment relates to SARS-CoV-2 strain USA-WA1/2020. Briefly: microbe, parasite or virus in culture. The class given is cell-based. The note with it: Severe acute respiratory syndrome coronavirus 2, HeLa-ACE2, 24 h, HeLa-ACE2 cells, SARS-CoV-2 infection, 24 h; read-out: EC50, uM (Hela).
For the molecule `O=C(NC1CC1)C(=O)N1CC2(CC2)C[C@H]1C(=O)N[C@@H](C[C@@H]1CCNC1=O)C(=O)COC(F)(F)F` [Compound 746, (S)-5-(2-(cyclopropylamino)-2-oxoacetyl)-N-((S)-3-oxo-1-((S)-2-oxopyrrolidin-3-yl)-4-(trifluoromethoxy)butan-2-yl)-5-azaspiro[2.4]heptane-6-carboxamide], the EC50 (commonly the midpoint of the concentration-response curve) was 0.05 to 0.2 µM. As for `CC(C)NC(=O)C(=O)N1CC2(CC2)C[C@H]1C(=O)N[C@@H](C[C@@H]1CCNC1=O)C(=O)COC(F)(F)F` [Compound 747, (S)-5-(2-(isopropylamino)-2-oxoacetyl)-N-((S)-3-oxo-1-((S)-2-oxopyrrolidin-3-yl)-4-(trifluoromethoxy)butan-2-yl)-5-azaspiro[2.4]heptane-6-carboxamide], the EC50 is below 0.05 µM. Then `CC(C)C[C@H](C)C(=O)N1CC2(CC2)C[C@H]1C(=O)N[C@@H](C[C@@H]1CCNC1=O)C(=O)COC(F)(F)F` [Compound 748, (S)-5-((S)-2,4-dimethylpentanoyl)-N-((S)-3-oxo-1-((S)-2-oxopyrrolidin-3-yl)-4-(trifluoromethoxy)butan-2-yl)-5-azaspiro[2.4]heptane-6-carboxamide], with 0.05 to 0.2 µM; and `CCNC(=O)C(=O)N1CC2(CC2)C[C@H]1C(=O)N[C@@H](C[C@@H]1CCNC1=O)C(=O)COC(F)(F)F` [Compound 749, (S)-5-(2-(ethylamino)-2-oxoacetyl)-N-((S)-3-oxo-1-((S)-2-oxopyrrolidin-3-yl)-4-(trifluoromethoxy)butan-2-yl)-5-azaspiro[2.4]heptane-6-carboxamide], with 0.05 to 0.2 µM; and `CC(F)(F)CCC(=O)N1CC2(CC2)C[C@@H]1C(=O)N[C@H](C[C@@H]1CCNC1=O)C(=O)COC(F)(F)F` [Compound 750, (R)-5-(4,4-difluoropentanoyl)-N-((R)-3-oxo-1-((S)-2-oxopyrrolidin-3-yl)-4-(trifluoromethoxy)butan-2-yl)-5-azaspiro[2.4]heptane-6-carboxamide], with 0.05 to 0.2 µM. For the molecule `CC(C)C[C@@H](O)C(=O)N1CC(F)(F)C[C@H]1C(=O)N[C@@H](C[C@@H]1CCNC1=O)C(=O)COC(F)(F)F` [Compound 751, (S)-4,4-difluoro-1-((R)-2-hydroxy-4-methylpentanoyl)-N-((S)-3-oxo-1-((S)-2-oxopyrrolidin-3-yl)-4-(trifluoromethoxy)butan-2-yl)pyrrolidine-2-carboxamide], the EC50 is 0.05 to 0.2 µM. Then `CC(C)C[C@@H](C)C(=O)N1CC2(CC2)C[C@H]1C(=O)N[C@@H](C[C@@H]1CCNC1=O)C(=O)COC(F)(F)F` [Compound 752, (S)-5-((R)-2,4-dimethylpentanoyl)-N-((S)-3-oxo-1-((S)-2-oxopyrrolidin-3-yl)-4-(trifluoromethoxy)butan-2-yl)-5-azaspiro[2.4]heptane-6-carboxamide], with below 0.05 µM. On to `CC(C)C[C@@H](O)C(=O)N1C[C@H](C)C[C@H]1C(=O)N[C@@H](C[C@@H]1CCNC1=O)C(=O)COC(F)(F)F` [Compound 753, (2S,4R)-1-((R)-2-hydroxy-4-methylpentanoyl)-4-methyl-N-((S)-3-oxo-1-((S)-2-oxopyrrolidin-3-yl)-4-(trifluoromethoxy)butan-2-yl)pyrrolidine-2-carboxamide], for which the EC50 was below 0.05 µM. Then `CC(C)(F)C[C@@H](O)C(=O)N1CC2(CC2)C[C@H]1C(=O)N[C@@H](C[C@@H]1CCNC1=O)C(=O)COC(F)(F)F` [Compound 754, (S)-5-((R)-4-fluoro-2-hydroxy-4-methylpentanoyl)-N-((S)-3-oxo-1-((S)-2-oxopyrrolidin-3-yl)-4-(trifluoromethoxy)butan-2-yl)-5-azaspiro[2.4]heptane-6-carboxamide], with 0.05 to 0.2 µM; and `[2H]C([2H])([2H])C([2H])([2H])CCCC(=O)N1CC2(CC2)C[C@H]1C(=O)N[C@@H](C[C@@H]1CCNC1=O)C(=O)COC(F)(F)F` [Compound 755, (S)-5-(hexanoyl-5,5,6,6,6-d5)-N-((S)-3-oxo-1-((S)-2-oxopyrrolidin-3-yl)-4-(trifluoromethoxy)butan-2-yl)-5-azaspiro[2.4]heptane-6-carboxamide], with below 0.05 µM.
